Key:
Details in all cases: 72 h
Caco-2 [1] = experiment: cell viability relative to DMSO; higher = less toxic
Calu-3 [2] = experiment: as above
HepG2 [3] = experiment: as above
U2OS [4] = experiment: as above
Vero E6 [5] = experiment: as above
Caco-2 [6] = experiment: relative viability EC50 (midpoint between 100% and the lowest measured viability); higher = less toxic
Calu-3 [7] = experiment: as above
HepG2 [8] = experiment: as above
U2OS [9] = experiment: as above
Vero E6 [10] = experiment: as above
Caco-2 [11] = experiment: drug sensitivity score (DSS) for viability; higher = more toxic; extreme values may be limits of the assay
Calu-3 [12] = experiment: as above
HepG2 [13] = experiment: as above
U2OS [14] = experiment: as above
Vero E6 [15] = experiment: as above

| Compound | cell viability (Caco-2 [1]; 1 nM) | cell viability (Caco-2 [1]; 10 nM) | cell viability (Caco-2 [1]; 100 nM) | cell viability (Caco-2 [1]; 1000 nM) | cell viability (Caco-2 [1]; 10000 nM) | cell viability (Calu-3 [2]; 1 nM) | cell viability (Calu-3 [2]; 10 nM) | cell viability (Calu-3 [2]; 100 nM) | cell viability (Calu-3 [2]; 1000 nM) | cell viability (Calu-3 [2]; 10000 nM) | cell viability (HepG2 [3]; 1 nM) | cell viability (HepG2 [3]; 10 nM) | cell viability (HepG2 [3]; 100 nM) | cell viability (HepG2 [3]; 1000 nM) | cell viability (HepG2 [3]; 10000 nM) | cell viability (U2OS [4]; 1 nM) | cell viability (U2OS [4]; 10 nM) | cell viability (U2OS [4]; 100 nM) | cell viability (U2OS [4]; 1000 nM) | cell viability (U2OS [4]; 10000 nM) | cell viability (Vero E6 [5]; 1 nM) | cell viability (Vero E6 [5]; 10 nM) | cell viability (Vero E6 [5]; 100 nM) | cell viability (Vero E6 [5]; 1000 nM) | cell viability (Vero E6 [5]; 10000 nM) | relative viability EC50 (Caco-2 [6]) | relative viability EC50 (Calu-3 [7]) | relative viability EC50 (HepG2 [8]) | relative viability EC50 (U2OS [9]) | relative viability EC50 (Vero E6 [10]) | drug sensitivity score (Caco-2 [11]) | drug sensitivity score (Calu-3 [12]) | drug sensitivity score (HepG2 [13]) | drug sensitivity score (U2OS [14]) | drug sensitivity score (Vero E6 [15]) |
| --- | --- | --- | --- | --- | --- | --- | --- | --- | --- | --- | --- | --- | --- | --- | --- | --- | --- | --- | --- | --- | --- | --- | --- | --- | --- | --- | --- | --- | --- | --- | --- | --- | --- | --- | --- |
| COc1ccc2c(c1)CN(C)CC2c1ccc(Cl)c(Cl)c1 (stereo not drawn) [diclofensine] | 96.6% | 94% | 86% | 95.6% | 83.5% | 103% | 106% | 107% | 101% | 87.9% | 101% | 98.8% | 95.9% | 103% | 97.2% | 99.3% | 103% | 93.3% | 100% | 93.2% | 96% | 99.3% | 94.5% | 95.7% | 91.1% | > 10 µM | > 10 µM | > 10 µM | > 10 µM | > 10 µM | 0.6 | 0 | 0 | 0 | 0 |
| O[C@H]1[C@H]2[C@H](O)CCCN2C[C@H]1O [swainsonine] | 79% | 95.1% | 86.8% | 81.5% | 81.7% | 97.5% | 104% | 91.1% | 88.7% | 87.1% | 110% | 96.4% | 90.9% | 88.9% | 94.2% | 95.8% | 103% | 98.5% | 105% | 92.3% | 112% | 97% | 97.5% | 83.7% | 88.1% | > 10 µM | > 10 µM | > 10 µM | > 10 µM | > 10 µM | 0 | 1.3 | 0.5 | 0 | 2 |
| CN(C)CC(c1ccc(O)cc1)C1(O)CCCCC1 (stereo not drawn) [desvenlafaxine] | 105% | 102% | 99.6% | 98.2% | 99.2% | 98.8% | 110% | 97.3% | 109% | 98.7% |  |  |  |  |  | 99.1% | 99.7% | 96.5% | 97.5% | 94.2% | 101% | 97.2% | 97.5% | 92.6% | 94.3% | > 10 µM | > 10 µM |  | > 10 µM | > 10 µM | 0 | 0 |  | 0 | 0 |
| COC(=O)c1c(-c2cc(OC)c(OC)c(OC)c2)c2ccnc(OCc3ncccn3)c2c(=O)n1Cc1ccnc(C)c1 [T-0156] | 96.4% | 93% | 89.6% | 99.9% | 103% | 87% | 96.4% | 90.2% | 98.5% | 101% |  |  |  |  |  | 95.6% | 103% | 96.5% | 99.3% | 100% | 96% | 94.4% | 102% | 105% | 109% | > 10 µM | > 10 µM |  | > 10 µM | > 10 µM | 0 | 0 |  | 0 | 0 |
| Nc1ccc(-c2nc3ccc(-c4nc5ccc(N)cc5[nH]4)cc3[nH]2)cc1 [Ro-90-7501] | 94% | 91.6% | 96.8% | 95.3% | 99.7% | 104% | 105% | 102% | 102% | 97% | 98.3% | 98.7% | 93.4% | 79.5% | 54.6% | 105% | 94.5% | 100% | 98.5% | 100% | 93.3% | 101% | 89.7% | 98.7% | 113% | > 10 µM | > 10 µM |  | > 10 µM | > 10 µM | 0 | 0 | 4.5 | 0 | 0 |
| Cc1cccc(C)c1NC(=O)c1ccccc1C(=O)O [ftaxilide] | 94.5% | 100% | 102% | 99.8% | 104% | 103% | 106% | 98.6% | 122% | 106% |  |  |  |  |  | 102% | 105% | 98.5% | 101% | 97.2% | 107% | 102% | 99.8% | 96.3% | 100% | > 10 µM | > 10 µM |  | > 10 µM | > 10 µM | 0 | 0 |  | 0 | 0 |

Reference: the supplement of paper PMC13380429
